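A five-concentration, 48-hour dose response in 96-well plates underlies each endpoint, interpolated linearly between surrounding concentrations. TGI marks complete inhibition of growth.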
Columns and labels:
Assay in all cases: NCI-60 cell line screen, 48 h
[1] = tested on: MCF7 breast
[2] = tested on: MALME-3M melanoma
[3] = tested on: SF-295 CNS
[4] = tested on: HCT-15 colon
[5] = tested on: OVCAR-4 ovarian
[6] = tested on: UO-31 renal
[7] = tested on: HT29 colon
[8] = tested on: NCI-H226 lung
[9] = tested on: 786-0 renal
[10] = tested on: OVCAR-5 ovarian
[11] = tested on: MDA-N
[12] = tested on: CCRF-CEM leukemia
[13] = tested on: SF-268 CNS
[14] = tested on: SK-MEL-2 melanoma
[15] = tested on: SK-MEL-28 melanoma
[16] = tested on: M14 melanoma
[17] = tested on: OVCAR-3 ovarian
[18] = tested on: K-562 leukemia
[19] = tested on: EKVX NSCLC

| Structure (SMILES) | TGI [1] | TGI [2] | TGI [3] | TGI [4] | TGI [5] | TGI [6] | TGI [7] | TGI [8] | TGI [9] | TGI [10] | TGI [11] | TGI [12] | TGI [13] | TGI [14] | TGI [15] | TGI [16] | TGI [17] | TGI [18] | TGI [19] |
| --- | --- | --- | --- | --- | --- | --- | --- | --- | --- | --- | --- | --- | --- | --- | --- | --- | --- | --- | --- |
| N#Cc1nc(CSCc2ccccc2)oc1N | > 100 µM | > 100 µM | > 100 µM | > 100 µM | > 100 µM | > 100 µM | > 100 µM | > 100 µM | > 100 µM | > 100 µM | > 100 µM | > 100 µM | > 100 µM | > 100 µM | > 100 µM | > 100 µM | > 100 µM |  |  |
| CCC[C@H](O)[C@@H](CNc1cc(NC(C)=O)nc(NC(C)=O)n1)N(Cc1ccccc1)Cc1ccccc1 | 25.8 µM | > 100 µM | 25.5 µM | > 100 µM | > 100 µM | 48.6 µM |  | 33.1 µM | 38.6 µM | > 100 µM | > 100 µM |  |  | > 100 µM | > 100 µM | > 100 µM | 55.6 µM | > 100 µM | 45.3 µM |
| C=C[C@@H](OCOCC[Si](C)(C)C)[C@@H](CC)OC(CCCOC(=O)C(C)(C)C)OC (stereo partly drawn) | 44.9 µM |  | 50.7 µM | 50.9 µM | > 100 µM | > 100 µM | > 100 µM | 81.6 µM | 88.5 µM | 44.4 µM | > 100 µM | 92.8 µM | > 100 µM | 52.9 µM | > 100 µM | > 100 µM | > 100 µM | > 100 µM | 65.4 µM |
| O=c1cc(CO)n(CCc2c[nH]c3ccccc23)cc1O | 59.6 µM | 57.5 µM | > 100 µM | > 100 µM |  | > 100 µM | > 100 µM |  | 98.1 µM | > 100 µM | > 100 µM | 69.8 µM | 53.2 µM | > 100 µM |  | > 100 µM | 75.1 µM |  | > 100 µM |
| CCC(CC)C(=O)OC[n+]1ccc(-c2c(COC(=O)NC(C)C)c(COC(=O)NC(C)C)c3n2CCC3)cc1 | > 100 µM |  | > 100 µM | > 100 µM | > 100 µM | > 100 µM |  | > 100 µM | > 100 µM |  | > 100 µM | > 100 µM |  |  |  | > 100 µM | > 100 µM | > 100 µM | > 100 µM |
| NC(=O)c1cc(-c2ccc(-n3ccnc3)cc2)n[nH]c1=O | > 100 µM | > 100 µM |  | > 100 µM | > 100 µM | > 100 µM |  |  | > 100 µM | > 100 µM | > 100 µM | > 100 µM | > 100 µM |  | > 100 µM | > 100 µM |  |  | > 100 µM |
| COc1ccc(C2=C(Cl)c3cc(OC)c(OC)cc3C2=O)cc1OC | 27.9 µM | 26 µM | > 100 µM | 20.7 µM | 25.5 µM | 30.2 µM | > 100 µM | > 100 µM | 10.7 µM | 33.9 µM | 38.3 µM | > 100 µM | 35.9 µM | 28 µM |  | 18.1 µM | 6.56 µM |  | 37.9 µM |
| COC(=O)Nc1nc2ccc(Oc3ccc4nc(NC(=O)OC)[nH]c4c3)cc2[nH]1 | > 100 µM | > 100 µM | > 100 µM | > 100 µM | > 100 µM | > 100 µM | > 100 µM | 2.72 µM | > 49.6 µM | > 100 µM | > 100 µM |  |  | > 100 µM | > 20.4 µM | > 29.6 µM | 0.744 µM | > 45.2 µM | > 100 µM |
| COc1ccc(N)c(C(O)CCNC(C)=O)c1 (stereo not drawn) | > 100 µM |  | > 100 µM | > 100 µM | > 100 µM | > 100 µM | > 100 µM | > 100 µM | > 100 µM | > 100 µM | > 100 µM | > 100 µM | > 100 µM | > 100 µM |  | > 100 µM | > 100 µM |  | > 100 µM |
| COC(=O)c1ccc(Oc2nc3ccccc3nc2-c2cccs2)cc1 | > 100 µM | > 100 µM | 48 µM | > 100 µM | > 100 µM | > 100 µM | > 100 µM |  | > 100 µM | > 100 µM | > 100 µM | > 100 µM | 66 µM | > 100 µM | > 100 µM | > 100 µM | > 100 µM |  | > 100 µM |
| Nc1ccc(-c2ncc3cc(-c4cccc(-c5cc6cnc(-c7ccc(N)cc7)nc6c6ccccc56)c4)c4ccccc4c3n2)cc1 | > 100 µM |  | > 100 µM | > 100 µM |  | > 100 µM | > 100 µM | > 100 µM | > 100 µM | > 100 µM | > 100 µM | > 100 µM | > 100 µM | > 100 µM | > 100 µM | > 100 µM | > 100 µM | > 100 µM | > 100 µM |
| c1cc(-c2csc(-c3ccsc3)c2)cs1 | 48.6 µM |  | > 100 µM | > 100 µM | > 100 µM | > 100 µM | > 100 µM | 83.2 µM | > 100 µM | > 100 µM | > 100 µM | > 100 µM | > 100 µM |  | > 100 µM | > 100 µM | > 100 µM | > 100 µM | > 100 µM |
| C[C@]12CCC3c4ccc(O)cc4CC[C@H]3C1CC(=O)N(N)C2=O (stereo partly drawn) | > 100 µM | > 100 µM | > 100 µM |  | > 100 µM | > 100 µM | > 100 µM | > 100 µM | > 100 µM | > 100 µM | > 100 µM | > 100 µM | > 100 µM |  | > 100 µM | > 100 µM | > 100 µM | > 100 µM | > 100 µM |
| C[C@@]12c3c4ccc(C=O)c3Oc3ccc(C=O)c(c31)Oc1c(C=O)ccc(c12)O4 | > 100 µM | > 100 µM | > 100 µM | > 100 µM | > 100 µM | > 100 µM | > 100 µM | > 100 µM | > 100 µM | > 100 µM | > 100 µM |  | > 100 µM | > 100 µM | > 100 µM | > 100 µM | > 100 µM | > 100 µM | > 100 µM |

— PubChem BioAssay (NCI)
